{"source": "patent US6294547A", "about": "“Naphthyridine deratives or salts thereof” (Nippon Kayaku Kabushiki Kaisha, priority 1997, dated 2001)", "key": {"[1]": {"system": "bronchoconstriction caused by inhalation of an antigen", "assay": "Inhibitory effect on bronchoconstriction caused by inhalation of antigen (ovalbumin)", "assay_type": "in vivo, Hartley strain male guinea pigs (active sensitization)", "details": "10 μmol/kg oral, 50 min before antigen inhalation; measured 8 min after", "method": "There were used non-treated Hartley strain male guinea pigs and Hartley strain male guinea pigs received to active sensitization by subcutaneous administration of 30 mg/kg of ovalbumin 14 to 21 days before. The guinea pigs were anesthetized with pentobarbital and a tube was inserted into the trachea of each guinea pig. The guinea pigs were subjected to positive pressure respiration by means of an artificial respiratory apparatus at 10 ml/kg and 60 times/minute. The pressure in the edge of the tube in the trachea was measured as an indication of bronchoconstriction. Spontaneous respiration was inhibited by administering succinylcholine. […] The rate of inhibition by the drug was determined relative to the bronchoconstriction before the drug administration.\nTo the guinea pigs received to active sensitization, 4.6 μmol/kg of phosphoramidon was intravenously administered, and 15 minutes after the administration, these guinea pigs were allowed to inhale for 2 minutes an aerosol of an antigen ovalbumin solution (2 mg/ml) produced with an ultrasonic nebulizer, to cause bronchoconstriction. […] The inhibition rate of the drug-treated group was determined relative to the bronchoconstriction of the solvent-treated group measured 8 minutes after the antigen inhalation."}, "NK-2 receptors": {"molecular_target": "T1, NK-2 receptors (Rattus norvegicus, UniProt P16610)", "T1 construct": "Duodenums isolated from Fischer strain male rats were homogenized; from tissue; host or cells: duodenum membranes of male Fischer rats", "T1 sequence (P16610 1-390)": "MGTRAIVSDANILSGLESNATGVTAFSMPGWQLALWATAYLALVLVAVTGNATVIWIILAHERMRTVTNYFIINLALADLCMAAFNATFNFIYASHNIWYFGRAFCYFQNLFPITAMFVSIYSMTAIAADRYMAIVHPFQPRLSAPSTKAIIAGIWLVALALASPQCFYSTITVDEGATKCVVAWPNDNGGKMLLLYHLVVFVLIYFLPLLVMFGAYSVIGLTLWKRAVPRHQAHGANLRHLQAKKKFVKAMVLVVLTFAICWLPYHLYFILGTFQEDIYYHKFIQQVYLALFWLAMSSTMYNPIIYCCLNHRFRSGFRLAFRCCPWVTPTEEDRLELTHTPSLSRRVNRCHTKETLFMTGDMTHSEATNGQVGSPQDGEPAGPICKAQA", "assay": "Binding to NK-2 receptors (inhibition of radioactive 125I-neurokinin A binding)", "assay_type": "Fischer strain male rats (duodenum membranes)", "details": "rat duodenum membrane; 125I-neurokinin A 1×10^-9 M; 90 min, room temperature; read-out: IC50 of drugs in binding of radioactive neurokinin A", "method": "Duodenums isolated from Fischer strain male rats were homogenized in 50 mM Tris-hydrochloric acid buffer (pH 7.4) containing saccharose (100 mg/ml) and ethylenediaminetetraacetic acid (1 mM), and the resulting homogenate was centrifuged at 48,000 g and 4° C. for 20 minutes. The pellet thus obtained was washed three times with 10 times as much 50 mM Tris-hydrochloric acid buffer (pH 7.4) containing KCl (300 mM) and ethylenediaminetetraacetic acid (10 mM) as the pellet by volume, and the resulting membrane preparation was suspended in 10 times as much 50 mM Tris-hydrochloric acid buffer (pH 7.4) as the membrane preparation by volume and stored at -80° C. until use. The membrane preparation (20 mg/ml) was incubated together with a radioactive ligand ^125 I-neurokinin A (1×10^-9 M) at room temperature for 90 minutes in the presence of each drug or a solvent therefor in 50 mM Tris-hydrochloricacid buffer (pH 7.4) containing bovine serum albumin (10 mg/ml), bacitracin (40 μg/ml), leupeptin (4 μg/ml), chymostatin (50 μg/ml), antipain (1×10^-4 M) and MnCl2 (1 mM). […] Then, radioactivity in the filter was measured with a gamma counter. The 50% inhibitory concentration (IC50) of the drug was determined by means of a regression line by considering radioactivity in the presence of Nle10 neurokinin A (4-10) (3×10^-6 M) to be due to nonspecific binding, and measuring the rate of inhibition of specific binding by the drug by carrying out a control experiment using the solvent alone."}, "NK-1 receptors": {"molecular_target": "T2, NK-1 receptors (Cavia porcellus, UniProt P30547)", "T2 construct": "the ileums were isolated; from tissue; host or cells: isolated ileum of male Hartley guinea pigs", "T2 sequence (P30547 whole entry)": "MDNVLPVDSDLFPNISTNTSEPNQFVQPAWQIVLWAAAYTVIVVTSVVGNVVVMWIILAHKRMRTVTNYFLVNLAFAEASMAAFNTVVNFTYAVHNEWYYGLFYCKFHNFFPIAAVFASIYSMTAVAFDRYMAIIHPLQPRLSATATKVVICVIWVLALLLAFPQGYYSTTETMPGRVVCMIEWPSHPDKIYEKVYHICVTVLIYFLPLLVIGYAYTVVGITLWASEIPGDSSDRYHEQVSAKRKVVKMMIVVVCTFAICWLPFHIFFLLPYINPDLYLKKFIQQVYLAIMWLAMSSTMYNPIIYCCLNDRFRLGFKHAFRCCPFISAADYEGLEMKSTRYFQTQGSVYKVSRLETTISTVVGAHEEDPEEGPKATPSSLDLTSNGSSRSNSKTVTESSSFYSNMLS", "assay": "Antagonism for NK-1 receptor (methylsubstance P induced contraction of isolated ileum)", "assay_type": "cell-based, Hartley strain male guinea pigs", "details": "guinea pig ileum; methylsubstance P 1×10^-9 M; 35 min incubation; read-out: IC50 of a drug on methylsubstance P induced contraction", "method": "Hartley strain male guinea pigs were killed by a blow on the head and blood-letting, and the ileums were isolated. A specimen of about 3 cm in length was prepared and then suspended at a tension of 0.5 gw in a 15 magunus bath with an internal volume of 15 ml containing Krebs-Henseleit solution of 37° C. while introducing a mixed gas of 95% O2 +5% CO2 into the bath. As the Krebs-Henseleit solution, that containing atropine (1×10^-6 M) and indomethacin (5×10^-6 M) was used for preventing the participation of intrinsic acetylcholine and prostaglandins. Methylsubstance P (1×10^-9 M), a specific stimulating agent for NK-1 receptors were repeatedly allowed to act on the specimen at intervals of 40 minutes. After the percentage of contraction due to methylsubstance P became constant, a drug was added to the solution to each of various concentrations, followed by incubation for 35 minutes, and methyl-substance P was allowed to act on the specimen again. The rate of inhibition by the drug was determined relative to the percentage of contraction immediately before the addition of the drug, and the 50% inhibitory concentration (IC50) of the drug was determined by means of a regression line."}}, "note": "Where a name gives a salt, the structure may show the parent alone."}
{"smiles": "CN(CC(CCN1CCc2nc3c(cc2C1)CCCC3)c1ccc(Cl)c(Cl)c1)C(=O)c1ccccc1", "note": "(single isomer, unassigned) [Example 25, 2-[(-)-4-(N-benzoyl-N-methyl)amino-3-(3,4-dichlorophenylbutyll-1,2,3,4,6,7,8,9-octahydro-benzo[b][1,6]naphthyridine fumarate]", "values": [{"measurement": "Inhibition (rate), inhalation of antigen", "setting": "[1]", "result": 54.1, "unit": "%"}, {"measurement": "IC50", "setting": "NK-2 receptors", "result": 56, "unit": "nM"}, {"measurement": "IC50", "setting": "NK-1 receptors", "result": 470, "unit": "nM"}]}
